These results are taken from paper PMC9056410, “14-Residue peptaibol velutibol A from Trichoderma velutinum: its structural and cytotoxic evaluation” (RSC Advances, 2020).

Values after ≈ are worked out from the molar mass of the structure shown. Where two headings read alike, the source gives them in different places. Where a SMILES comes first, the peptide text is derived from it. [ ]: non-standard residue; d: D form. Leu(ol) = CC(C)C[C@H](N)CO; Aib = CC(C)(N)C(=O)O

The test system of assay [1] is human breast cancer (MDA-MB-231). Nature of the assay: cells. Type of assay: cell-based. The conditions noted are these: MTT, mean ± SD of three experiments, read-out: IC50 ± standard deviation. The procedure:
(§1) The cytotoxicity testing of compound 1 was performed against various cell lines, which includes human lung cancer (A549), human colon cancer (LS-180), human myeloid leukemia (HL-60) and human breast cancer (MDA-MB-231) using MTT (3-(4,5-dimethylthiazole-2-yl)-2,5-diphenyltetrazolium bromide). Herein, paclitaxel was used as positive control for cytotoxic assay. […] Further, the cell-cycle assay was performed on HL-60 cell lines. The compound 1 was treated against HL-60 cells at concentrations 5, 10, 20 and 30 μM and incubated for 24 h. […] Apoptotic bodies are small DNA fragments wrapped around the single membrane vesicles mainly formed when cells undergo apoptosis. These apoptotic bodies can be visualized under a fluorescent microscope by using DNA staining dyes such as 4′,6-diamidino-2-phenylindole (DAPI). The HL-60 cells were incubated with the compound 1 at different concentrations (5, 10, 20 and 30 μM) for 24 h. […] The % apoptosis is also represented graphically in Fig. 7.
(§2) The cytotoxic effect of compound 1 on cancer cells was assayed by using MTT dye. The HL-60 cell lines were seeded for 4 h in round bottom 96 well plates. It was then treated with different concentrations of compound 1 dissolved in DMSO and incubated for 48 h. With 3 h earlier to experiment termination, the MTT dye (20 μL) from the stock solution of 2.5 mg mL^−1 was added to each well. The MTT-formazan crystals thus formed were dissolved in DMSO (160 μL) and observed at 570 nm. The untreated control culture was treated with DMSO (<0.2%).

Assay [2] relates to human colon cancer (LS-180). The assay is described as follows: cells. It is filed as cell-based. The conditions noted are these: mean ± SD of three experiments, read-out: IC50 ± standard deviation. The procedure: as §1, §2
For assay [3], the system named is human lung cancer (A549). The assay is described as follows: cells. The conditions noted are these: MTT, mean ± SD of three experiments, read-out: IC50 ± standard deviation. Type of assay: cell-based. The protocol:
as §1, §2

The test system of assay [4] is human myeloid leukemia (HL-60). The assay is described as follows: cells. It is filed as cell-based. The note with it: MTT, mean ± SD of three experiments, read-out: IC50 ± standard deviation. The protocol: as §1, §2
The test system of assay [5] is M. tuberculosis H37Rv. The assay is described as follows: microbe, parasite or virus in culture. The note with it: Mycobacterium tuberculosis, read-out: Minimum Inhibitory Concentration (MIC).
Assay [6] concerns HL-60 cells. Nature of the assay: Cell cycle analysis, propidium iodide staining, flow cytometry. It is filed as cell-based, human. The note with it: 24 h, PI staining. The protocol: as §1
The cell cycle phase distribution analysis in HL-60 cells was carried out by propidium iodide (PI) staining. The HL-60 cells were treated with different concentration (5, 10, 20 and 30 μM) of 1. After 24 h, the cells were centrifuged and collected at 400 × g and washed two times with PBS followed by fixing with ice-cold ethanol (70%). It was incubated overnight at 4 °C. Next day, cells were centrifuged at 4000 rpm, collected and washed with PBS followed by incubation with RNase (0.2 mg mL^−1) for 90 min at 37 °C. It was then stained with PI (10 μg mL^−1) and kept for 30 min in dark. The analysis of cells were carried out through flow-cytometer (FACS Calibur, Becton Dickinson) using list mode on 10 000 events for FL2-A vs. FL2-W. The ModFit software was used for the calculation of fluorescence intensity of the sub-G1 cell fraction representing the apoptotic cell population.
Background: A flow cytometer gives signals particle by particle.

The subject of assay [7] is HL-60 cells. The assay is described as follows: Nuclear morphology, DAPI staining, fluorescence microscopy. It is filed as cell-based, human. The conditions noted are these: HL-60, 5, 10, 20 and 30 μM, 24 h. The procedure:
as §1
HL-60 cells were incubated with compound 1 in a 12 well plate. After 24 h, cells were centrifuged at 400 × g, collected and washed two times with PBS. The cells were fixed using 1 mL solution of cold acetic acid in methanol (1 : 3) and incubated overnight at 4 °C. Further, the cells were centrifuged at 400 × g, collected and re-suspended in fixing solution (100 μL). […]

Assay [8] has as its system M. tuberculosis H37Rv. The note with it: 48 h.
[9] abbreviates: 48 h incubation, read at 570 nm.

Usually IC50 stands for the concentration that inhibits the measured activity by half. Consider `CC(=O)O[C@H]1C(=O)[C@@]2(C)[C@H]([C@H](OC(=O)c3ccccc3)[C@]3(O)C[C@H](OC(=O)[C@H](O)[C@@H](NC(=O)c4ccccc4)c4ccccc4)C(C)=C1C3(C)C)[C@]1(OC(C)=O)CO[C@@H]1C[C@@H]2O` [Paclitaxel, paclitaxel, reference compound], for which the IC50 worked out at 3.3 ± 0.1 nM in assay [1] (Homo sapiens, positive control); 2.2 ± 0.1 nM in assay [2] (Homo sapiens, LS180, MTT, positive control); 6.2 ± 0.1 nM in assay [3] (Homo sapiens, positive control); 1.8 ± 0.1 nM in assay [4] (Homo sapiens, positive control).
Turning to `CO[C@H]1/C=C/O[C@@]2(C)Oc3c(C)c(O)c4c(O)c(c(/C=N/N5CCN(C)CC5)c(O)c4c3C2=O)NC(=O)/C(C)=C\C=C\[C@H](C)[C@H](O)[C@@H](C)[C@@H](O)[C@@H](C)[C@H](OC(C)=O)[C@@H]1C` [Rifampicin], in assay [5], the MIC came to 0.06 µg/mL (≈ 0.0729 µM).
Take `CC(=O)NC(C)(C)C(=O)N[C@@H](CCC(N)=O)C(=O)N[C@@H](CC(C)C)C(=O)NC(C)(C)C(=O)N1CCC[C@H]1C(=O)N[C@H](C(=O)N[C@@H](CC(C)C)C(=O)NC(C)(C)C(=O)N1CCC[C@H]1C(=O)NC(C)(C)C(=O)NC(C)(C)C(=O)NC(C)(C)C(=O)N1CCC[C@H]1C(=O)N[C@H](CO)CC(C)C)C(C)C` [compound 1, Velutibol A] (Ac-[Aib]QL[Aib]PVL[Aib]P[Aib][Aib][Aib]P[Leu(ol)]): the IC50 in assay [1] (setting [9]) was 7000 ± 200 nM; in assay [2] (MTT, 48 h incubation, read at 570 nm), 26000 ± 1100 nM; in assay [3] (setting [9]), 23000 ± 800 nM; in assay [4] (setting [9]) it was 4000 ± 100 nM. Also, the “Apop (apoptotic DNA population, sub-G1)” value was found to be 70% in assay [6] (HL-60, 10 μM); 85% in assay [6] (HL-60, 20 μM); 99% in assay [6] (HL-60, 30 μM). For the same molecule, the “Formation of apoptotic bodies” value in assay [7] is reported as “increased in a dose-dependent manner”. Further, in assay [8], the “Minimum Inhibitory Concentration (MIC)” value amounted to 32 µg/mL.
